From paper PMC9504695, “Insight into the Formation of Cocrystal and Salt of Tenoxicam from the Isomer and Conformation” (Pharmaceutics, 2022)
Where two headings read alike, the source gives them in different places.

Key:
[1] = cited from earlier work
[2] = pKa of TNX and cocrystal coformers (values from SciFinder); settings: between CCF and TNX (pKa of TNX 4.50)
[3] = clinical dosage forms; cited from earlier work
[4] = low solubility and high permeability; cited from earlier work
[5] = Dissolution measurements (basket method, 37 °C, HPLC); format: physicochemical; settings: pH 1.2 and 6.8, 37 °C
Description: Dissolution measurements were investigated by the basket method by using an RC12AD dissolution instrument (Tianjin Tianda Tianfa Technology Co., Ltd., Tianjin, China). According to a previous study, it is necessary that all of the particle sizes of TNX, cocrystals, and salt are at the same level when the same operation is performed on these samples. To do so, the powder samples of TNX, two cocrystals, and one salt were milled and sieved through 100-mesh sieves to minimize the size influence on the results. The temperature and rotation speed were set to 37 °C and 160 r·min^−1. The dissolution mediums were water (pH 7.0), phosphate buffer (pH 6.8), acetate buffer (pH 4.5), and hydrochloric buffer (pH 1.2). Accurately weighed samples (containing 60 mg of TNX) were each added to 900 mL of dissolution mediums. The sampling points were at 5, 10, 15, 20, 30, 45, 60, 90, 120, 180, 240, 360, 480, 600, and 720 min. The concentrations of TNX were quantified on an Agilent 1200 Series HPLC system (Agilent Technologies, Santa Clara, USA) with a Sil-Green C18 HPLC column (4.6 mm × 250 mm, 5μm) and a UV detector at a wavelength of 257 nm. The mobile phase was methanol–0.04% formic acid aqueous solution (61:39). The flow rate and column temperature were set to 1 mL·min^−1 and 25 °C.

SMILES | pKa Value ([1]; pKa of the CCF, ref SciFinder) | ΔpKa Value [2] | also measured
O=C(O)c1c(O)cccc1O [2,6-Dihydroxybenzoic acid (DHB), 2,6-Dihydroxybenzoic acid] | 1.30 | 3.20 | 
O=C(O)c1cc([N+](=O)[O-])cc([N+](=O)[O-])c1 [3,5-Dinitrobenzoic acid (DNB), 3,5-Dinitrobenzoic acid] | 2.77 | 1.73 | 
O=C(O)c1ccc(O)cc1 [4-Hydroxybenzoic acid (HBA), 4-Hydroxybenzoic acid] |  | 0.07 | 
O=C(O)CO [Glycolic acid (GLA), Glycolic acid] | 3.74 | 0.76 | 
O=C(O)/C=C\C(=O)O [Maleic acid (MLA), Maleic acid] | 2.39 | 2.11 | 
O=C(O)C(=O)O [Oxalic acid (OLA), Oxalic acid] | 1.38 |  | 
Oc1ccccc1O [Pyrocatechol (PRC), Pyrocatechol] | 9.50 | 5.00 | 
Oc1cccc(O)c1O [Pyrogallol (PRG), Pyrogallol] | 9.28 | 4.78 | 
Oc1cccc(O)c1 [Resorcinol (RSC), Resorcinol] | 9.45 | 4.95 | 
O=C1NS(=O)(=O)c2ccccc21 [Saccharin (SCR), Saccharin] | 1.60 |  | 
O=C(O)CCC(=O)O [Succinic acid (SNA), Succinic acid] |  | 0.26 | 
CN1C(C(=O)Nc2ccccn2)=C(O)c2sccc2S1(=O)=O [TNX, Tenoxicam] |  |  | pKa ([1]; TNX, source not given): 4.50; half-life period [3]: 70~90 h; BCS class [4]: class II
CN1C(C(=O)Nc2ccccn2)=C(O)c2sccc2S1(=O)=O.Nc1ccc(C(=O)O)c(O)c1 [TNX-PAS] |  |  | solubility in dissolution measurements, comparison [5]: slightly higher than that of TNX
Nc1ccc(C(=O)O)c(O)c1 [p-Aminosalicylic acid (PAS), p-Aminosalicylic acid] |  | 0.92 | pKa Value [1]: 3.58
O=C(O)CCC(=O)C(=O)O [α-Ketoglutaric acid (KLA), α-Ketoglutaric acid] |  | 2.12 | 
